Measured values as given in US11945834B2, “Cyclic dinucleotides as anticancer agents” (BRISTOL-MYERS SQUIBB COMPANY, priority 2018, dated 2024).
Where two headings read alike, the source gives them in different places.

Assays:
[1] = molecular target: T1, STING WT: His-TVMV-S-hSTING(155-341)-H232R (Homo sapiens, UniProt Q86WV6, H232R); assay: STING HTRF binding assay, STING WT; conditions: 20 nM His-tagged STING cytoplasmic domain WT, 200 nM fluorescein-labeled cGAMP analog probe, one hour; read-out: HTRF Binding Assays IC50 (μM) WT
T1 construct: STING WT: His-TVMV-S-hSTING(155-341)-H232R
T1 sequence (Q86WV6 with tags, fused parts or gaps H232R): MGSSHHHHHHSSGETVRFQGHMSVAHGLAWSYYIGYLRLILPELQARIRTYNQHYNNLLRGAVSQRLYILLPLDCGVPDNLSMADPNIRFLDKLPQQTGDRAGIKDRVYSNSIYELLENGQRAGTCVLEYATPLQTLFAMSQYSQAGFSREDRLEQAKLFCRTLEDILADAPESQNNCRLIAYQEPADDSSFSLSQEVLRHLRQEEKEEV
Procedure: (§1) A time resolved FRET-based competition binding assay was used to assess test article binding to STING WT and STING AQ. His-tagged STING cytoplasmic domain (WT or AQ) at a concentration of 20 nM was incubated with 2.5 nM Tb-labeled anti-His antibody, test compound, and fluorescein-labeled cGAMP analog probe (BioLog cat. no. C195) at a concentration of 200 nM (STING WT) or 40 nM (STING AQ) in PBS containing 0.005% Tween-20 and 0.1% BSA for one hour. Fluorescence at 495 nm and 520 nm was measured using an EnVision microplate reader to quantify FRET between Tb-labeled anti-His antibody and fluorescein-labeled probe. Background was defined as the signal obtained in the absence of STING protein, and background subtracted FRET ratios were normalized to the maximum signal obtained in the absence of test compound. These values were converted to a percent inhibition. Percent inhibition was determined for test compounds at 11 concentrations. The IC50, defined as the concentration of competing test compound needed to reduce specific binding of the probe by 50%, was calculated using the 4 parameter logistic equation to fit the data

[2] = tested on: NF-κB pathway in THP1-Dual cells (STING agonists); assay: STING THP1 reporter assay, NF-κB pathway (SEAP); type: cell-based; conditions: 10% human plasma, SEAP readout, 100% = 100 μM cGAMP, read-out: THP1 Reporter Assays EC50 (μM) NFkB
Excerpt: (§2) THP1-Dual™ cells were derived from the human THP-1 monocyte cell line by stable integration of two inducible reporter constructs. To this end, THP1-Dual™ cells allow the simultaneous study of the NF-κB pathway, by monitoring the activity of SEAP, and the IRF pathway by assessing the activity of a secreted luciferase (Lucia). Both reporter proteins are readily measurable in the cell culture supernatant when using QUANTI-Blue™, a SEAP detection reagent, and QUANTI-Luc™, a luciferase detection reagent.
(§3) THP1-Dual™ cells induce the activation of NF-κB in response to STING agonists. They also trigger the IRF pathway upon stimulation with STING agonists, such as cGAMP. Here, the THP-1-Dual cells were used to assess STING binders for function on the cellular level.
(§4) Serial dilutions of compounds in DMSO were added to low volume 384 well plates at 100 nl/well using an ECHO acoustic dispenser (Labcyte, model 550) to achieve final starting concentration of 100 μM in cell suspension. THP-1 Dual™ STING reporter cells (Invivogen, Dual cells cat #THPD-nfis) were added to the plates with compounds at 15,000 cells in 10 μL per well in RPMI media (Gibco, cat #11875) containing 10% human plasma in a low volume 384-well black wall clear bottom tissue culture plate (Corning, cat #3542) for SEAP assay and low volume solid white plate (Corning, cat #3826) for luciferase assay. One column of the plate was reserved for treatment with cGAMP at 100 μM for 100% activation calculation and one column for no treatment (DMSO only) for baseline activation. Plates were then incubated in 37° C. incubator at 5% CO2 for 20 hours.
(§5) In the SEAP assay, 5 μl of 2× QuantiBlue (Invivogen, cat #Rep-qb2) is added to 384 well black plates seeded with THP1 cells and incubated at 37° C. for 2 hours. Plates were read on the Envision (Perkin Elmer) at 620 nm wavelength (OD620). In the luciferase assay, 5 μl of Quantiluc (Invivogen, Rep-qlc2) is added to white 384 well plates seeded with THP1 cells and read at 5 minutes on the Envision (Perkin Elmer) using a luminescence protocol (RLU). For both cell lines, 100% activation was determined by value (RLU) of THP-1 Dual STING cells stimulated with 100 μM cGAMP (Invivogen, cat #TLRL-NACGA23-5).

[3] = molecular target: T2, STING AQ: His-TVMV-S-hSTING(155-341)-G230A-R293Q (Homo sapiens, UniProt Q86WV6, G230A/H232R/R293Q); assay: STING HTRF binding assay, STING AQ; conditions: 20 nM His-tagged STING cytoplasmic domain AQ, 40 nM fluorescein-labeled cGAMP analog probe, one hour; read-out: HTRF Binding Assays IC50 (μM) AQ
T2 construct: STING AQ: His-TVMV-S-hSTING(155-341)-G230A-R293Q
T2 sequence (Q86WV6 with tags, fused parts or gaps G230A/H232R/R293Q): as the sequence (Q86WV6 with tags, fused parts or gaps H232R) above, with G99A, R162Q counted along it
Procedure: as §1

[4] = tested on: IRF pathway in THP1-Dual cells (STING agonists); assay: STING THP1 reporter assay, IRF pathway (Lucia luciferase); type: cell-based; conditions: 10% human plasma, luciferase readout, 100% = 100 μM cGAMP, read-out: THP1 Reporter Assays EC50 (μM) IRF3
Excerpt: as §2, §3, §4, §5

Structure (SMILES)	IC50 [1] [µM]	EC50 ([2]; Homo sapiens, THP1-Dual, 20 h) [µM]	IC50 [3] [µM]	EC50 ([4]; Homo sapiens, THP1-Dual, 20 h) [µM]	EC50 ([4]; 20 hours) [µM]	EC50 ([2]; 20 hours) [µM]
NC(=O)c1cc([C@@H]2O[C@@H]3COP(=O)(S)O[C@H]4[C@@H](F)[C@H](n5cnc6c(N)ncnc65)O[C@@H]4COP(=O)(S)O[C@@H]2[C@@H]3O)ccn1 (single isomer, unassigned) [Example 1-1]	0.09	8.05	0.01	4.94		
CNC(=O)c1cc([C@@H]2O[C@@H]3COP(=O)(S)O[C@H]4[C@@H](F)[C@H](n5cnc6c(N)ncnc65)O[C@@H]4COP(=O)(S)O[C@@H]2[C@@H]3O)ccn1 (single isomer, unassigned) [Example 2-1]	10.3	> 100	0.6	> 100		
CNC(=O)c1cc([C@@H]2O[C@@H]3COP(=O)(S)O[C@H]4[C@@H](F)[C@H](n5cnc6c(N)ncnc65)O[C@@H]4COP(=O)(S)O[C@@H]2[C@@H]3O)ccn1 (single isomer, unassigned) [Example 2-4]	92.3		4.85		> 100	
C=C1[C@H]2OP(=O)(S)OC[C@H]3O[C@@H](n4cnc5c(N)ncnc54)[C@H](F)[C@@H]3OP(=O)(S)OC[C@H]1O[C@H]2c1ccnc(C(N)=O)c1 (single isomer, unassigned) [Example 3-1]	0.78		0.04		9.23	22.6
C=C1[C@H]2OP(=O)(S)OC[C@H]3O[C@@H](n4cnc5c(N)ncnc54)[C@H](F)[C@@H]3OP(=O)(S)OC[C@H]1O[C@H]2c1ccnc(C(N)=O)c1 (single isomer, unassigned) [Example 3-2]	40.9		1.64		> 100	> 100
C=C1[C@H]2OP(=O)(S)OC[C@H]3O[C@@H](n4cnc5c(N)ncnc54)[C@H](F)[C@@H]3OP(=O)(S)OC[C@H]1O[C@H]2c1ccnc(C(N)=O)c1 (single isomer, unassigned) [Example 3-3]	14.4		1.03		> 100	> 100
C=C1[C@H]2OP(=O)(S)OC[C@H]3O[C@@H](n4cnc5c(N)ncnc54)[C@H](F)[C@@H]3OP(=O)(S)OC[C@H]1O[C@H]2c1ccnc(C(N)=O)c1 (single isomer, unassigned) [Example 3-4]	1.21		0.09		7.4	19.3
NC(=O)c1cc([C@@H]2O[C@@H]3COP(=O)(S)O[C@H]4[C@@H](F)[C@H](n5cnc6c(N)ncnc65)O[C@@H]4COP(=O)(S)O[C@@H]2[C@@H]3F)ccn1 (single isomer, unassigned) [Example 4-1]	0.66		0.05		19	57.1
NC(=O)c1cc([C@@H]2O[C@@H]3COP(=O)(S)O[C@H]4[C@@H](F)[C@H](n5cnc6c(N)ncnc65)O[C@@H]4COP(=O)(S)O[C@@H]2[C@@H]3F)ccn1 (single isomer, unassigned) [Example 4-2]	0.09		0.03		0.37	1.32
NC(=O)c1cc([C@@H]2O[C@@H]3COP(=O)(S)O[C@H]4[C@@H](F)[C@H](n5cnc6c5ncn5ccnc65)O[C@@H]4COP(=O)(S)O[C@@H]2[C@@H]3O)ccn1 (single isomer, unassigned) [Example 5-2]	93.4	0.38	14	0.14		
